Entries after “also recorded” stand apart in the source; their conditions may differ.
What was measured:
[1] = tested on: women with menstrual cycle-induced symptoms (e.g. PMS, PMDD); test: Closed label trials of 3-MMC for menstrual cycle-induced symptoms (case reports of 11 women); format: in vivo, human
From the text: The following case studies exemplify some aspects of some embodiments of the methods of the present invention for treating perimenstrual disorders in subjects suffering at least one menstrual cycle-induced symptom by administering 3-MMC.
Detailed reports of 11 experiences of women with unlabeled (“pill”) 3-MMC for menstrual cycle-induced symptoms.
Between the second half of 2018 and the first months of 2019, eleven women participated in a blinded trial of 3-MMC (the “pill”) administered to alleviate their menstrual cycle-induced symptoms. The subjects tried different doses ranging from 12.5 mg. up to 50 mg.
Each one of the women used the 3-MMC for relief for at least two to three consecutive menstrual periods, with the number of trials varying from two to seven per woman, making a total of 45 trials.
Thus, the experience with 3-MMC for menstrual cycle-induced symptoms reported here is from […] separate trials.

[2] = animal models, cited from earlier work
[3] = 12.5 mg then 25 mg with an interval of five hours (Ana)
[4] = one dose of 12.5 mg plus one dose of 25 mg, total 37.5 mg
[5] = one dose of 12.5 mg, individual trials
[6] = one dose of 25 mg, individual trials
[7] = two doses of 12.5 mg (Ana: interval of five hours; Jenny: equivalent to 25 mg)
[8] = two doses of 25 mg, one hour interval, total 50 mg (Katy)

For CNC(C)C(=O)c1cccc(C)c1 (centres unmarked) [3-MMC, 3-methylmethcathinone], the “relief of symptoms at low dose (overview)” value ([1]; 12.5 mg) was “while not consistent, was often effective in providing relief of symptoms”, the Psychological reaction [1, 3] was “experienced less emotional distress and felt much calmer” and the Side effects [1, 3] was “an outbreak of acne”. The “Response summary of the subject” value ([1]; 37.5 mg dose) was “more aware of themself, more concentrated, energetic, daring, calmer, but they would still be irritated or angry; also recorded: Rebecca felt actually very good”, the “undesired side effects (overview)” value ([1]; 30-35 mg) was “some undesired side effects, such as tachycardia or temperature changes were occasionally more noticeable” and the “effect when administered in anticipation of symptoms” value ([1]; administration prior to symptom onset) was “can significantly reduce the intensity as well as duration of many menstrual cycle induced symptoms”. The “most commonly reported psychological and emotional effects” value ([1]; all subjects) was “enhanced their overall sense of well-being, increased energy levels, induced calmness and relaxation and heightened abilities of concentration; also recorded: a sense of relaxation and calm, often combined with heightened energy and ability to concentrate”, the “most commonly reported side effects” value ([1]; all subjects, 12.5-50 mg) was “tachycardia, sensation of body temperature changes (usually feeling warmer or sometimes colder) and sweating” and the “overall reported experience / relief of symptoms” value ([1]; eleven women, about 60 trials, doses 12.5 mg up to 50 mg) was “Ten out of the eleven reported a rather good to a very positive experience; also recorded: A desired positive effect was achieved with most trials; also recorded: provided relief from more than one of the reported menstrual cycle-induced symptoms”. The “side effects, individual subject's summary over all their doses” value ([1]; individual subjects, all doses taken) was “they never perceived non-desired side-effects; also recorded: increased heartbeat and stomach pain on empty stomach; also recorded: noticed body temperature changes; also recorded: an unfamiliar tingling at the back of the tongue and throat; also recorded: They experienced no side effects or physical reactions worth mentioning; also recorded: had no physical reactions or undesired side effects with any of the doses; also recorded: some light and non-desirable effects such as body temperature changes”, the Psychological reaction [1, 4] was “more willing to do things with an energetic flow that lasted up to four hours; also recorded: they could still sense anger and irritation, but now more in control; also recorded: They felt less irritated, less angry and more relaxed; also recorded: No perceived psychological effect; also recorded: felt very much calmer and much more relaxed than usual; also recorded: felt more awake, more energetic, more alive, therefore less tired and irritated” and the Side effects [1, 4] was “Accelerated heartbeat, dizziness, feeling hot and sweating and Accelerated heartbeat, sweating and lack of appetite and None and Sweating and appetite loss”. For the same molecule, the Psychological reaction [1, 5] was “felt more emotionally stable after one hour, less oversensitive, less anxious and they had a slightly heightened mood and felt less depressed, not lethargic, down or exhausted anymore and They were no longer feeling down and exhausted and Exhaustion, feeling down, mood swings, feeling alone and helpless, over sensitive, powerlessness, forgetfulness, willing to cry and Experiencing less anxiety and nervousness, feeling calmer and not very focused, only a little and less irritable but not a major difference and more relaxed, less emotionally distressed and Calmer and more stable and less mood swings, less upset, less emotional and less tired and Ines felt calmer, less nervous and emotional and less distressed and tense and None (they felt no effect whatsoever with this small dose) and None and None, not better nor worse”, the Side effects [1, 5] was “perceived no negative physical reactions or side effects and Stomach pain and none and none (apart from feeling warmer) and Tingling tongue, light somnolence and None” and the Psychological reaction [1, 6] was “emotional distress, mood swings and anxiety decreased; also recorded: Ana felt calmer and more relaxed; also recorded: felt less angry and irritated; also recorded: they were more focused, having a heightened mood, they felt less helpless and more in control; also recorded: experienced no emotional distress or feeling down or any tension; also recorded: no longer feeling low, anxious or distressed; also recorded: feeling focused and motivated to study; also recorded: feeling focused and more concentrated; also recorded: they could focus and concentrate on their studies and was also more motivated; also recorded: they felt relaxed, calmer; also recorded: Fanny felt calmer and stable; also recorded: no longer feeling upset, felt a lot calmer; also recorded: Small, but transient improvement in their mood; also recorded: felt more relaxed, less tense; also recorded: feeling noticeably less upset and less sad; also recorded: Jenny felt better, less anxious, less unhappy; also recorded: felt better and more relaxed; also recorded: Her sadness faded away; also recorded: relief of the sadness, not down or stressed anymore; also recorded: experienced slightly less tension; also recorded: a bit calmer, after two hours very relaxed, not crying anymore”. The Side effects [1, 6] was “none and None and stomach ache (on an empty stomach) and a higher heart rate and Cold hands and feet and drowsiness and some muscle pain or tension and Temporal slight stomach and muscle pain and Perceived body temperature changes, tingling sensation in the throat and Difficulty to go to sleep and somewhat tired and body temperature changes”, the interaction with paracetamol ([1]; one subject (Bea), 12.5 mg 3-MMC combined with paracetamol) was “did not experience any undesirable interactions with the 3-MMC; also recorded: without any noticeable substance interaction or undesired effect” and the “side effects with repeated use” value ([1]; repeated use) was “side-effects tend to diminish over time with repeated use of 3-MMC”. For the same molecule, the “effect when administered after onset of symptoms” value ([1]; some subjects) was 3-MMC was effective even when administered after the onset of menstrual cycle-induced symptoms, the “effect on somatic symptoms” value ([1]; some subjects (e.g. headache, physical pain)) was “administration of 3-MMC resulted in disappearance of somatic symptoms (e.g. headache); also recorded: can also produce a reduction in somatic symptoms (e.g. physical pain); also recorded: some of the subjects reported alleviation of somatic symptoms” and the perceived effect ([1]; subject Gertie, 40 mg in one intake) was “a bit too much”. For the same molecule, the perceived benefit ([1]; subject Gertie, doses between 10 mg and 20 mg) was “They didn't perceive any benefit”, the perceived benefit ([1]; subject Gertie, doses between 20 and 30 mg) was “They felt positive effects” and the “response and psychological effects” value ([1]; subject Gertie, one or two pills a couple of days before menstruation, usual dose 20-25 mg) was “feels less tense; also recorded: they are able to take decisions again; also recorded: a radical positive life change”. For the same molecule, the response summary ([1]; subject Ines, alternating doses of 12.5 mg and 25 mg, seven occasions) was “The main effect was calming and relaxing; also recorded: no significant dose response has been observed”, the Psychological reaction [1, 7] was “their emotional distress, feeling down, mood swings, helplessness and anxiety declined; also recorded: felt more energized, no longer down or sad” and the Side effects [1, 7] was “none and None”. For the same molecule, the Psychological reaction [1, 8] was “no longer angry although they could still feel irritated; also recorded: They experienced reduced irritability and anger; also recorded: felt more energetic, less irritated and after two hours they were very calm”, the Side effects [1, 8] was “Increased heartbeat, sweating and loss of appetite; also recorded: No noticeable side effects; also recorded: a brief period (one hour) of depression” and the “cumulative positive effect of repeated administration” value ([1]; two or more consecutive doses within about 24 hours of each other) was “taking the pill two consecutive days made the effect of the second one last longer; also recorded: Possibly a cumulative effect; also recorded: a sort of a cumulative positive effect; also recorded: the positive effects of 3-MMC reportedly persisted; also recorded: positive effects persist”. For the same molecule, the “time of peak serum concentrations” value ([2]; after oral administration) was 5 to 10 min and the apparent plasma half-life ([2]; after oral ingestion) was “approximately 0.8 hours”.
